Measurements from ChEMBL document CHEMBL2010730, “An example of designed multiple ligands spanning protein classes: dual MCH-1R antagonists/DPPIV inhibitors” (Bioorg Med Chem Lett, 2012).

Key:
[1] = molecular target: T1, Melanin-concentrating hormone receptor 1 (Homo sapiens, UniProt Q99705); assay: Antagonist activity at human MCH1R expressed in CHO cells assessed as inhibition of MCH-induced response at 5 uM; assay type: functional, cell-based
[2] = molecular target: T1, Melanin-concentrating hormone receptor 1; assay: Antagonist activity at human MCH1R expressed in CHO cells assessed as inhibition of MCH-induced response; assay type: functional, cell-based
Dipeptidyl peptidase 4 [3] = molecular target: T2, Dipeptidyl peptidase 4 (Homo sapiens, UniProt P27487); assay: Inhibition of DPP4
Dipeptidyl peptidase 4 [4] = molecular target: T2, Dipeptidyl peptidase 4; assay: Inhibition of human recombinant DPP4 using H-Gly-Pro-7-amino-4-methylcoumarin as substrate assessed as inhibition of 7-amino-4-methylcoumarin formation after 30 mins by fluorimetry
Dipeptidyl peptidase 8 = Dipeptidyl peptidase 8 (Homo sapiens, UniProt Q6V1X1); assay: Inhibition of DPP8
Dipeptidyl peptidase 9 = Dipeptidyl peptidase 9 (Homo sapiens, UniProt Q86TI2); assay: Inhibition of DPP9
[5] = molecular target: Voltage-gated inwardly rectifying potassium channel KCNH2 (Homo sapiens, UniProt Q12809)
[6] = Lipophilicity, log D of the compound at pH 7.4; assay type: physicochemical; conditions: buffer
[7] = molecular target: T1, Melanin-concentrating hormone receptor 1; assay: Antagonist activity at human MCH1R expressed in forskolin-stimulated CHO cells assessed as inhibition of MCH-induced cAMP accumulation after 90 mins; assay type: functional, cell-based

T1 sequence (Q99705 whole entry): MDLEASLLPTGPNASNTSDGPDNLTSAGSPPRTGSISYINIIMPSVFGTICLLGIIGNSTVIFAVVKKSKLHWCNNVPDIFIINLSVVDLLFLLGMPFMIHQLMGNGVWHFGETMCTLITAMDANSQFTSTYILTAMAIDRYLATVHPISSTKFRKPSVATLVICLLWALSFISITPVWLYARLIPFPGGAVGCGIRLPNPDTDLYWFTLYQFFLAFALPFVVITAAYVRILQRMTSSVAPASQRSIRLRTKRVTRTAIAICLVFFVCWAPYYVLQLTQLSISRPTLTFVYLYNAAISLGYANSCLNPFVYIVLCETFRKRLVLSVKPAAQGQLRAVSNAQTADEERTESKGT
T2 sequence (P27487 whole entry): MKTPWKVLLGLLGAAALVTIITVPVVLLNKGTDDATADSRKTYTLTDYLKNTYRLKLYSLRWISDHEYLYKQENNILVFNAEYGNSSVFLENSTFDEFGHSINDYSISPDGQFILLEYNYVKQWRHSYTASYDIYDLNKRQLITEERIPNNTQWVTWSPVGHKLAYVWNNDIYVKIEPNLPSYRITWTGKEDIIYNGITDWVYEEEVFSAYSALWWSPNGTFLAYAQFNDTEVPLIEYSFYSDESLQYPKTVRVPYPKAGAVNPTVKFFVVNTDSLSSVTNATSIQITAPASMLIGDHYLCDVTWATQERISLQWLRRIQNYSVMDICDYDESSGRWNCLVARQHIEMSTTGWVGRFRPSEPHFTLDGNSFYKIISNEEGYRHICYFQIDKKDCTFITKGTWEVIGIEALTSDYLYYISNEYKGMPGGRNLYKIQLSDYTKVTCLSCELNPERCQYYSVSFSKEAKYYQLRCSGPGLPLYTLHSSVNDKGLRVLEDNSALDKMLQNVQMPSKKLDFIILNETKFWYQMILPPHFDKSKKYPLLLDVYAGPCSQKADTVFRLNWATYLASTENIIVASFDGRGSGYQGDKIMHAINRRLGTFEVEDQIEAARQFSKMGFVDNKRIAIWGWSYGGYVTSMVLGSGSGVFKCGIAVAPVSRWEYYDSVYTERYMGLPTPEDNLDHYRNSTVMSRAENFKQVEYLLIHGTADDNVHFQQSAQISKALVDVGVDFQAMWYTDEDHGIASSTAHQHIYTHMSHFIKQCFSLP
Sequence of Dipeptidyl peptidase 8 (Q6V1X1 whole entry): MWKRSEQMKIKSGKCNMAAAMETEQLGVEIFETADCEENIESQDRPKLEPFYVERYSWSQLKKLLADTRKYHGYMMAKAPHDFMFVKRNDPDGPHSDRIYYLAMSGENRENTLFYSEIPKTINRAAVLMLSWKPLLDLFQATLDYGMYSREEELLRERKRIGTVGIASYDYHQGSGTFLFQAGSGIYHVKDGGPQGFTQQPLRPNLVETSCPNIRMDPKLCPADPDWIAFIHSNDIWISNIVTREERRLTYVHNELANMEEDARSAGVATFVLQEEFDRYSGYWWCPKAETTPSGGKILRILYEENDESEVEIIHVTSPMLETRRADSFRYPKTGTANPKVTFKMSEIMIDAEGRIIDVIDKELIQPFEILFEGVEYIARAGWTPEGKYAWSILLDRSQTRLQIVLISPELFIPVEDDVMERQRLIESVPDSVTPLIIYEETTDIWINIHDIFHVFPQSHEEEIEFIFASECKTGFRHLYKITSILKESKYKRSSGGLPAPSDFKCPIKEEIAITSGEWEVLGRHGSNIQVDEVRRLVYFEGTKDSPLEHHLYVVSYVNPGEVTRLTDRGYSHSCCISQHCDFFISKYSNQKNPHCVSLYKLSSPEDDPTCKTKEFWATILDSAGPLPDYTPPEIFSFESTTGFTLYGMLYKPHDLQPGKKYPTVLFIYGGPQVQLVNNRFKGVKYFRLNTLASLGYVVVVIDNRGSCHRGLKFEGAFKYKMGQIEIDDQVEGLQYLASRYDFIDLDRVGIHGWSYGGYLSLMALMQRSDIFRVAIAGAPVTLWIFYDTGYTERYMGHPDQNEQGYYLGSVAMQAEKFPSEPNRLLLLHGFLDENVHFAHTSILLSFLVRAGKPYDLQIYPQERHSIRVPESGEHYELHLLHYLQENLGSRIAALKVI
Sequence of Dipeptidyl peptidase 9 (Q86TI2 whole entry): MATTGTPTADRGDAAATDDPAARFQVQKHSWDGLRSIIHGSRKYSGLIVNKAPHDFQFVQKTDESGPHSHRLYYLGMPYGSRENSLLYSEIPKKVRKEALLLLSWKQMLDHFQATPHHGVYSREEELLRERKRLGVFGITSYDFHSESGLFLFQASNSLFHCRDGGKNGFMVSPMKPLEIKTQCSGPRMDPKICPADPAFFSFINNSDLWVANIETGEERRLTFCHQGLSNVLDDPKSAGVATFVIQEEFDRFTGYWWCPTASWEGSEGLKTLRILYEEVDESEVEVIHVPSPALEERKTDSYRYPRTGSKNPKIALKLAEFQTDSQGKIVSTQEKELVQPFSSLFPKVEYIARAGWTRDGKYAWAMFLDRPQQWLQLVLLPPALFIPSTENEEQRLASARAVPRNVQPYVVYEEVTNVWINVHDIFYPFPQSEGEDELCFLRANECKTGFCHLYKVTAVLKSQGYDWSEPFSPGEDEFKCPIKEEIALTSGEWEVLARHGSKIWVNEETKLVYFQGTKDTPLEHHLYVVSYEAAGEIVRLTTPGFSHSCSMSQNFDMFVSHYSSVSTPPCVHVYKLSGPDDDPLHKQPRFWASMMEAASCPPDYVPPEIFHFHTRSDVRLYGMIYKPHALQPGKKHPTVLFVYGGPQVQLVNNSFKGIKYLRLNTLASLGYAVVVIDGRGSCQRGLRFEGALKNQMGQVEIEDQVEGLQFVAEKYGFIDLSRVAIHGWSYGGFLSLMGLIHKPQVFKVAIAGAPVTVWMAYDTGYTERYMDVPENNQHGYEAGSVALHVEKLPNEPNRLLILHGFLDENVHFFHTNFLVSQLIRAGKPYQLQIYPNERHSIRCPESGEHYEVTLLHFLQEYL
Sequence of Voltage-gated inwardly rectifying potassium channel KCNH2 (Q12809 whole entry): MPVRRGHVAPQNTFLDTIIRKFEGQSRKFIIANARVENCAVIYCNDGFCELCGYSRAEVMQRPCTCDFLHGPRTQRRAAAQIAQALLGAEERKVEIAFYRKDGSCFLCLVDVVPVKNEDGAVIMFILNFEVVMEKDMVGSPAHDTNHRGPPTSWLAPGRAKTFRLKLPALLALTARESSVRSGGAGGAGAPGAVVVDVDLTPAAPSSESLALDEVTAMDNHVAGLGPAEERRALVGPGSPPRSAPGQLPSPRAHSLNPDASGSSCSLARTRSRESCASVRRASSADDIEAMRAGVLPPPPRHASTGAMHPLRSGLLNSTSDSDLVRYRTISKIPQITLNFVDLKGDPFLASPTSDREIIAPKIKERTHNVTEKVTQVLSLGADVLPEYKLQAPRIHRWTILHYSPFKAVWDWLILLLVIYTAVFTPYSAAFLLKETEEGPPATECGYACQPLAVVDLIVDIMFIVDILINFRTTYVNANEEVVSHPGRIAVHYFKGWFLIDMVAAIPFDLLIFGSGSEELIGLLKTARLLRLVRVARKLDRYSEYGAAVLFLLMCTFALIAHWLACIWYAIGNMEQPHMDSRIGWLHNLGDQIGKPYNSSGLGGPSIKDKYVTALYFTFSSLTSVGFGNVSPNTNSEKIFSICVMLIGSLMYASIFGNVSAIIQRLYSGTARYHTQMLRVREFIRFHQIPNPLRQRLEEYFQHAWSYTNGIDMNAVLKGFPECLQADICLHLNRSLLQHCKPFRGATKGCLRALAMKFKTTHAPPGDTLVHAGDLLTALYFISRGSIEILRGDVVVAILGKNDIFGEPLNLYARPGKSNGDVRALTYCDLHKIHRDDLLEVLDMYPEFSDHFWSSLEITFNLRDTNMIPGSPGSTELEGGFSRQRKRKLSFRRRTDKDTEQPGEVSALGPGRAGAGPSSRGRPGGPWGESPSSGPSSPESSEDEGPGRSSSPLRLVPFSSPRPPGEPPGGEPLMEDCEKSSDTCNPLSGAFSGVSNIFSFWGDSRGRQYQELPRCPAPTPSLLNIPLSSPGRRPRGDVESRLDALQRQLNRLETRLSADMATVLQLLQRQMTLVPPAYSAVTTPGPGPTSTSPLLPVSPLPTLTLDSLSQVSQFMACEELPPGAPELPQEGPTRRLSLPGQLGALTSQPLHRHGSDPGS

CC(C)COc1ccc(CC(=O)Nc2ccc(N3C[C@H](c4cc(F)ccc4F)[C@@H](N)C3)nc2)cc1
inhibition [1]: 35%

N[C@H]1CN(c2ccc(CCNC(=O)c3ccc(OCC4CC4)cc3)cn2)C[C@@H]1c1cc(F)ccc1F
inhibition [1]: 43%
IC50 [2]: 3800 nM

N[C@H]1CN(c2cc(-c3ccccc3)ncn2)CC[C@@H]1c1cc(F)c(F)cc1F
Ki (Dipeptidyl peptidase 4 [3]): 6 nM

N[C@H]1CN(c2ccc(-n3ccc(OCc4ccccc4)cc3=O)cn2)CC[C@@H]1c1cc(F)c(F)cc1F
IC50 (Dipeptidyl peptidase 4 [4]): 350 nM
IC50 (Dipeptidyl peptidase 8): > 50000 nM
IC50 [2]: 440 nM
IC50 (Dipeptidyl peptidase 9): > 50000 nM

N[C@H]1CN(c2ccc(-n3ccnc(CCCc4ccccc4)c3=O)cn2)C[C@@H]1c1cc(F)ccc1F
inhibition [1]: 52%
IC50 [2]: > 3000 nM

N[C@H]1CN(c2ccc(-n3ccc(-c4ccccc4)cc3=O)cn2)C[C@@H]1c1cc(F)ccc1F
inhibition [1]: 39%

N[C@H]1CN(c2ccc(-n3ccc(OCc4ccccc4)cc3=O)cn2)C[C@@H]1c1cc(F)c(F)cc1F
IC50 [5]: 6100 nM
IC50 (Dipeptidyl peptidase 4 [4]): 1100 nM
logD [6]: 3.4
IC50 [2]: 110 nM

N[C@@H]1CCN(c2ccc(-n3ccc(OCc4ccccc4)cc3=O)cn2)C1
Ki [7]: 6 nM
IC50 (Dipeptidyl peptidase 4 [4]): > 100000 nM
IC50 (Dipeptidyl peptidase 8): > 100000 nM
IC50 [2]: 20 nM
IC50 (Dipeptidyl peptidase 9): > 100000 nM

CCCCOc1ccc2c(c1)CCN(c1ccc(N3C[C@H](c4cc(F)ccc4F)[C@@H](N)C3)nc1)C2=O
inhibition [1]: 44%
IC50 [2]: 4000 nM

N[C@H]1CN(c2ccc(-n3ccc(OCc4ccccc4)cc3=O)cn2)C[C@@H]1c1cc(F)ccc1F
inhibition [1]: 104%
IC50 (Dipeptidyl peptidase 4 [4]): 1650 nM
IC50 [2]: 140 nM
